Data as given in paper PMC10586324 (Journal of medicinal chemistry, 2023).
Like-named read-outs stand apart in the source and are kept apart here.

Experiments:
Mabs ATCC19977 = test: MBC determination by CFU counting
[1] = Nephelometry kinetic solubility screen in PBS; format: physicochemical
[2] = Plasma stability, murine plasma; format: in vitro ADME; conditions: 1 μM, 120 min
Mabs = conditions: enantiomers; cited from earlier work
[3] = test system: HEP 93 liver cancer cell line; conditions: cited from earlier work
[4] = oral administration, rats; cited from earlier work
[5] = oral administration, mice; cited from earlier work

O=C(N[C@H](Cc1ccccc1)C(=O)Nc1ccccc1N1CC[S+]([O-])CC1)c1ccccc1F [Compound 15]
MBC99 as multiple of MIC90 (Mabs ATCC19977): 2 X MIC90 | solubility relative to MMV688845 [1]: approximately 5 times

O=C(N[C@H](Cc1ccccc1)C(=O)Nc1ccccc1N1CCS(=O)(=O)CC1)c1cccs1 [Compound 20]
MBC99 as multiple of MIC90 (Mabs ATCC19977): 2 X MIC90

O=C(N[C@H](Cc1ccccc1)C(=O)Nc1ccccc1N1CCS(=O)(=O)CC1)c1ccccc1F [Compound 24]
stability in murine plasma [2]: improved stability

O=C(N[C@H](Cc1ccccc1)C(=O)Nc1ccccc1N1CCOCC1)c1cccs1 [MMV688845, Nα-2-thiophenoyl-D-phenylalanine-2-morpholinoanilide]
stability in murine plasma [2]: stronger decline in concentration than compound 24 | activity against Mabs (Mabs): shows activity | cytotoxicity HEP 93 [3]: non-cytotoxic | drug plasma levels [4]: low drug plasma levels | drug plasma levels [5]: low drug plasma levels | MBC99 as multiple of MIC90 (Mabs ATCC19977): 8 X MIC90 | reduction of viable bacteria (Mabs ATCC19977; at 6.25 μM (derivatives: 6.25 μM and higher)): no reduction
